Source: US10335409B2 (priority 2012, dated 2019)
Read-outs that look alike come from different tables or passages of the source.

Legend:
[1] = test system: genotype 1b (Con1) wild type transient HCV replicon in Huh-7-derived cells; test: Transient-transfected HCV replicon EC50, genotype 1b wild type; type: cell-based, hepatitis C virus; conditions: 72 h, transient-transfected replicon genotype 1b wild type, read-out: EC50 1B WT
[2] = molecular target: HCV NS3 protease domain genotype 3a (Hepatitis C virus genotype 3a, UniProt Q81258); test: Ki determination, NS3 protease genotype 3a (fluorogenic depsipeptide substrate); type: biochemical; conditions: 200 pM enzyme, NS4A peptide
In short: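 The NS3 protease domain (aa 1-181) with 20 μM NS4A peptide was used at 50 pM with 4 μM substrate (1b) or at 200 pM with 2 μM substrate (3a). Inhibitors (100 nM-5 pM) were pre-incubated 1 h at room temperature in HEPES/glycerol/DTT buffer with 10% DMSO. Steady-state rates (90-120 min) gave Ki via the Morrison equation, corrected for active enzyme and [S]/Km.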

[3] = test system: genotype 3a (S52) stable HCV replicon in Huh-7-derived cells; test: Stable subgenomic HCV replicon EC50, genotype 3a (Renilla luciferase); type: cell-based, hepatitis C virus; conditions: 72 h, read-out: EC50 3A RLUC
[4] = test system: genotype 1b (Con1) stable HCV replicon in Huh-7-derived cells; test: Stable subgenomic HCV replicon EC50, genotype 1b (Renilla luciferase); type: cell-based, hepatitis C virus; conditions: stable replicon genotype 1b, 72 h, read-out: EC50 1B RLUC
In short: (§1)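 Compounds, three-fold diluted, were applied to Huh-7-derived cells harbouring luciferase replicons (genotype 1a H77, 1b Con1, 2a JFH-1, 4a ED43, with strain-specific adaptive mutations). Seventy-two hours later, intracellular replication was gauged by Renilla luciferase activity and EC50 derived by regression.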

[5] = test system: genotype 1a (H77) wild type transient HCV replicon in Huh-7-derived cells; test: Transient-transfected HCV replicon EC50, genotype 1a wild type; type: cell-based, hepatitis C virus; conditions: 72 h, transient-transfected replicon genotype 1a wild type, read-out: EC50 1A WT
[6] = test system: genotype 2a (JFH-1) stable HCV replicon in Huh-7-derived cells; test: Stable subgenomic HCV replicon EC50, genotype 2a (Renilla luciferase); type: cell-based, hepatitis C virus; conditions: stable replicon genotype 2a, 72 h, read-out: EC50 2A RLUC
In short: as §1

[7] = test system: genotype 3a (S52) wild type transient HCV replicon in Huh-7-derived cells; test: Transient-transfected HCV replicon EC50, genotype 3a wild type; type: cell-based, hepatitis C virus; conditions: transient-transfected replicon genotype 3a wild type, 72 h, read-out: EC50 3A WT
[8] = test system: genotype 1b NS3/4a protease inhibitor resistant variant D168A transient HCV replicon in Huh-7-derived cells; test: Transient-transfected HCV replicon EC50, genotype 1b D168A; type: cell-based, hepatitis C virus; conditions: 72 h
[9] = test system: genotype 1a (H77) stable HCV replicon in Huh-7-derived cells; test: Stable subgenomic HCV replicon EC50, genotype 1a (Renilla luciferase); type: cell-based, hepatitis C virus; conditions: stable replicon genotype 1a, 72 h, read-out: EC50 1A RLUC
In short: as §1

[10] = test system: genotype 4a (ED43) stable HCV replicon in Huh-7-derived cells; test: Stable subgenomic HCV replicon EC50, genotype 4a (Renilla luciferase); type: cell-based, hepatitis C virus; conditions: 72 h, read-out: EC50 4A RLUC
In short: as §1

[11] = test system: genotype 1a NS3/4a protease inhibitor resistant variant R155K transient HCV replicon in Huh-7-derived cells; test: Transient-transfected HCV replicon EC50, genotype 1a R155K; type: cell-based, hepatitis C virus; conditions: 72 h
[12] = Hepatitis C virus, read-out: EC50 1B D168A, transient-transfected replicon genotype 1b D168A resistant variant, 72 h
[13] = Hepatitis C virus, read-out: EC50 1A R155K, transient-transfected replicon genotype 1a R155K resistant variant, 72 h

Chain of HCV NS3 protease domain genotype 3a (Q81258 whole entry, looked up, the tested form may be a part): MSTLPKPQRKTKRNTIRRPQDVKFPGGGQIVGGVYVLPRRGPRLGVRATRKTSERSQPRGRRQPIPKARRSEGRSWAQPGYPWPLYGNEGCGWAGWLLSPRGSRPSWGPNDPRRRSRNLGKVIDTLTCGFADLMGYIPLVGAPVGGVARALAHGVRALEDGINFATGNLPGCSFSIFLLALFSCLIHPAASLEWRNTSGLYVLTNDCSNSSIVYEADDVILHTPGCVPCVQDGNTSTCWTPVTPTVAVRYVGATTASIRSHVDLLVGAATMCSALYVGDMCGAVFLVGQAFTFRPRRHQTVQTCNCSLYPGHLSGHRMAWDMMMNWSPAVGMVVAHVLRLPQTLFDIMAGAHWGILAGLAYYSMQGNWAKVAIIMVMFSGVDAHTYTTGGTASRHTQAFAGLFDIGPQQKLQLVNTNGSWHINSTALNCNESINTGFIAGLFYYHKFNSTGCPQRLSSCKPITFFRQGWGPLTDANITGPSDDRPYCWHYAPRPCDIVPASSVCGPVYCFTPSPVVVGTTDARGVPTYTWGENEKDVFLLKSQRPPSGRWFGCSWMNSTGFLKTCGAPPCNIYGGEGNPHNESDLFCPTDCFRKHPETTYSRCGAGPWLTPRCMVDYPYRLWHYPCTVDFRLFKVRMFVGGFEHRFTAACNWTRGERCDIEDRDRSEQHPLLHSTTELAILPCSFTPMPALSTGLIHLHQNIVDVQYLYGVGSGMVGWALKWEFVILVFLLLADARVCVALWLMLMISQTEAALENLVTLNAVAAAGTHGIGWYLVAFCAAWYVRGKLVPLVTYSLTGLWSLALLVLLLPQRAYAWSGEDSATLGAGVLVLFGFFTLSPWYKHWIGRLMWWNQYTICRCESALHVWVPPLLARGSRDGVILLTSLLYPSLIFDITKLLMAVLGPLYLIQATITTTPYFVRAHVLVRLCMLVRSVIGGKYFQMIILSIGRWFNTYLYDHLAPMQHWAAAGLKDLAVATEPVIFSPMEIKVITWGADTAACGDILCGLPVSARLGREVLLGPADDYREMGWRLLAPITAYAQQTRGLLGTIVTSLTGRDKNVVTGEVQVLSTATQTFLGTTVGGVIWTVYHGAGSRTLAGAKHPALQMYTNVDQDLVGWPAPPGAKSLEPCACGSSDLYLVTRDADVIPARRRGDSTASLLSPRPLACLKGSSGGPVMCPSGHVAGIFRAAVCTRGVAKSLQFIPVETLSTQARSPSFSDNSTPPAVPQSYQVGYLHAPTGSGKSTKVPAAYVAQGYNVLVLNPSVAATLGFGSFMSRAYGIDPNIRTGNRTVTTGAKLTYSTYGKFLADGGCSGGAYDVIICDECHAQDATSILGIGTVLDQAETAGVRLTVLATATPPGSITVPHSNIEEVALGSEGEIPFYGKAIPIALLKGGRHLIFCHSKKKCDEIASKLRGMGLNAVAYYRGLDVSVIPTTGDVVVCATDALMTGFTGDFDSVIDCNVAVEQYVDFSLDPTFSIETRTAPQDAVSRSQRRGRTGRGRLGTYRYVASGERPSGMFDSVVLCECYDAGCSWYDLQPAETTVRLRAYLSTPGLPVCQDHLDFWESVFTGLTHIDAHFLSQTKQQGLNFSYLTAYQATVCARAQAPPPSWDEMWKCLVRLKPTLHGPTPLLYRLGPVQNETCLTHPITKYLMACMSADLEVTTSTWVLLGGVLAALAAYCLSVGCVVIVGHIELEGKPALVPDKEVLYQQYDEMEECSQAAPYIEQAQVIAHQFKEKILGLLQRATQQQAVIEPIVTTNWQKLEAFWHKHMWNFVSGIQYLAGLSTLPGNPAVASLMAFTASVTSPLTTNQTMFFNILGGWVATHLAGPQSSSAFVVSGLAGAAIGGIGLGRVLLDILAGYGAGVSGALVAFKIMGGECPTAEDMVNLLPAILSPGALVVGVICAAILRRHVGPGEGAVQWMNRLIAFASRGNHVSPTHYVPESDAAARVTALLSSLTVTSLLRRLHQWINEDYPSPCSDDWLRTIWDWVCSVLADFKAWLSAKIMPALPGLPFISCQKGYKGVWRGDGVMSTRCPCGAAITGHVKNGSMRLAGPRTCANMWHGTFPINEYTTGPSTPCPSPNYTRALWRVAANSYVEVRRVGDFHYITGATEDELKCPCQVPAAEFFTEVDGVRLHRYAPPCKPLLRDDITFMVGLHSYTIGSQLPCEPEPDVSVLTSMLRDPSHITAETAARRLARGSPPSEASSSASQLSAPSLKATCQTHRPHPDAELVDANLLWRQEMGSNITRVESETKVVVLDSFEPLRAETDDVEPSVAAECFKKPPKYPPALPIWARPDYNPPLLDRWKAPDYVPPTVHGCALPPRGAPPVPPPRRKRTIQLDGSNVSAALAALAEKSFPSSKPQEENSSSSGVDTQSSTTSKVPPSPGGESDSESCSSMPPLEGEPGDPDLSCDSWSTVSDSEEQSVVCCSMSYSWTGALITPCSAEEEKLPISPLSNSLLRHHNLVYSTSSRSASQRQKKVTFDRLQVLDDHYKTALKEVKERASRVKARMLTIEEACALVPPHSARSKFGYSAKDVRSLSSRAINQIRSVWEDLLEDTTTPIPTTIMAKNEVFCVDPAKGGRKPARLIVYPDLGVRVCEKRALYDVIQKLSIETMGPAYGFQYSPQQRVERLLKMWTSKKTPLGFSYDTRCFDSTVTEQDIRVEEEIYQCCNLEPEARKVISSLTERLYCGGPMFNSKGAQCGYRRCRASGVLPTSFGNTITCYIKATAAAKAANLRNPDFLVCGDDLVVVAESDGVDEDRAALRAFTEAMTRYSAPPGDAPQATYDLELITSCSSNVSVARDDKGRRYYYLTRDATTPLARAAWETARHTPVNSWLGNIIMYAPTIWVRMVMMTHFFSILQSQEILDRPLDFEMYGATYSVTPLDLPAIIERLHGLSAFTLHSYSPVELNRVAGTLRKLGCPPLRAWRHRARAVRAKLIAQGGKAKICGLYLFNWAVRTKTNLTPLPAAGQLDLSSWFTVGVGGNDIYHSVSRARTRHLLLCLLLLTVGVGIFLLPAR

| Compound | EC50 ([1]; Hepatitis C virus) | Ki [2] | EC50 ([3]; Hepatitis C virus) | EC50 ([4]; Hepatitis C virus) | EC50 ([5]; Hepatitis C virus) | EC50 ([6]; Hepatitis C virus) | EC50 ([7]; Hepatitis C virus) | EC50 [8, 12] | EC50 ([9]; Hepatitis C virus) | EC50 ([10]; Hepatitis C virus) | EC50 [11, 13] | also measured |
| --- | --- | --- | --- | --- | --- | --- | --- | --- | --- | --- | --- | --- |
| COc1ccc2nc3c(nc2c1)O[C@H]1CN(C(=O)[C@H](C(C)(C)C)NC(=O)O[C@@H]2CC4CC(C4)[C@H]2CCCCC3)[C@H](C(=O)N[C@]2(C(=O)NS(=O)(=O)C3CC3)C[C@H]2C(F)F)[C@@H]1C [Example 71, (4aR,8S,11S,12S,13R,25aR)-8-tert-butyl-N-[(1R,2R)-1-[(cyclopropylsulfonyl)carbamoyl]-2-(difluoromethyl)cyclopropyl]-17-methoxy-12-methyl-6,9-dioxo-2,3,4,4a,6,7,8,9,12,13,21,22,23,24,25,25a-hexadecahydro-1H,11H-1,3,10,13-dimethanoquinoxalino[2,3-k][1,10,3,6]benzodioxadiazacyclononadecine-11-carboxamide] | 3.8 nM | 0.14 nM | 160 nM | 5.3 nM | 9.1 nM | 23 nM | 49 nM | 66 nM | 6.5 nM | 5.3 nM | 30 nM |  |
| COc1ccc2nc3c(nc2c1)O[C@H]1CN(C(=O)[C@H](C(C)(C)C)NC(=O)O[C@]2(C)C[C@H]2CCCCC3)[C@H](C(=O)N[C@]2(C(=O)NS(=O)(=O)C3(C)CC3)C[C@H]2C(F)F)[C@@H]1C [Example 44, (1aR,5S,8S,9S,10R,22aR)-5-tert-butyl-N-[(1R,2R)-2-(difluoromethyl)-1-{[(1-methylcyclopropyl)sulfonyl]carbamoyl}cyclopropyl]-14-methoxy-1a,9-dimethyl-3,6-dioxo-1,1a,3,4,5,6,9,10,18,19,20,21,22,22a-tetradecahydro-8H-7,10-methanocyclopropa[18,19][1,10,3,6]dioxadiazacyclononadecino[11,12-b]quinoxaline-8-carboxamide] | 1.4 nM | 0.08 nM | 53 nM | 2.1 nM | 2.4 nM | 2.9 nM | 7 nM | 15 nM | 3.1 nM | 2.2 nM | 4 nM |  |
| CC[C@@H]1[C@@H]2CN(C(=O)[C@H](C(C)(C)C)NC(=O)O[C@]3(C)CCC[C@H]3CCCCCc3nc4ccc(OC)cc4nc3O2)[C@@H]1C(=O)N[C@]1(C(=O)NS(=O)(=O)C2(C)CC2)C[C@H]1C(F)F [Example 39] | 16 nM | 0.2 nM | 321 nM | 39 nM | 23 nM | 41 nM | 89 nM | 105 nM | 34 nM | 26 nM | 63 nM |  |
| COc1ccc2nc3c(nc2c1)O[C@H]1CN(C(=O)[C@H](C(C)(C)C)NC(=O)O[C@]2(C)C[C@H]2CCCCC3(F)F)[C@H](C(=O)N[C@]2(C(=O)NS(=O)(=O)C3(C)CC3)C[C@H]2C(F)F)[C@@H]1C [Example 76, (1aR,5S,8S,9S,10R,22aR)-5-tert-butyl-N-[(1R,2R)-2-(difluoromethyl)-1-{[(1-methylcyclopropyl)sulfonyl]carbamoyl}cyclopropyl]-18,18-difluoro-14-methoxy-1a,9-dimethyl-3,6-dioxo-1,1a,3,4,5,6,9,10,18,19,20,21,22,22a-tetradecahydro-8H-7,10-methanocyclopropa[18,19][1,10,3,6]dioxadiazacyclononadecino[11,12-b]quinoxaline-8-carboxamide] | 1 nM | 0.06 nM | 9 nM | 2.2 nM | 2 nM | 2.4 nM | 3.4 nM | 2.8 nM | 2.4 nM | 1.9 nM | 2.1 nM |  |
| COc1ccc2nc3c(nc2c1)O[C@H]1CN(C(=O)[C@H](C(C)(C)C)NC(=O)O[C@@H]2C[C@H]2CCCCC3(F)F)[C@H](C(=O)N[C@]2(C(=O)NS(=O)(=O)C3(C)CC3)C[C@H]2C(F)F)[C@@H]1C [Example 46, (1aR,5S,8S,9S,10R,22aR)-5-tert-butyl-N-[(1R,2R)-2-(difluoromethyl)-1-{[(1-methylcyclopropyl)sulfonyl]carbamoyl}cyclopropyl]-18,18-difluoro-14-methoxy-9-methyl-3,6-dioxo-1,1a,3,4,5,6,9,10,18,19,20,21,22,22a-tetradecahydro-8H-7,10-methanocyclopropa[18,19][1,10,3,6]dioxadiazacyclononadecino[11,12-b]quinoxaline-8-carboxamide] | 1.2 nM | 0.05 nM | 17 nM | 2.7 nM | 2.4 nM | 3.8 nM | 6.79 nM | 4.5 nM | 3.1 nM | 2.5 nM | 3.2 nM |  |
| CC[C@@H]1[C@@H]2CN(C(=O)[C@H](C(C)(C)C)NC(=O)O[C@@H]3C[C@H]3CC/C=C/C(F)(F)c3nc4ccc(OC)cc4nc3O2)[C@@H]1C(=O)N[C@]1(C(=O)NS(=O)(=O)C2(C)CC2)C[C@H]1C(F)F [Example 89] |  | 0.05 nM |  |  |  |  |  |  |  |  |  | EC50 [1]: 3.2 nM; EC50 ([3]; stable replicon genotype 3a, Renilla luciferase): 19 nM; EC50 [4]: 6.1 nM; EC50 [5]: 6 nM; EC50 [6]: 4.3 nM; EC50 [7]: 5.5 nM; EC50 ([8]; transient-transfected replicon genotype 1b D168A resistant variant, read-out: EC50 1B D168A): 5.1 nM; EC50 [9]: 6 nM; EC50 ([10]; stable replicon genotype 4a, Renilla luciferase): 4.6 nM; EC50 ([11]; transient-transfected replicon genotype 1a R155K resistant variant, read-out: EC50 1A R155K): 3.7 nM |
| CC[C@@H]1[C@@H]2CN(C(=O)[C@H](C(C)(C)C)NC(=O)O[C@@H]3C[C@H]3CCCC3CC3c3nc4ccc(OC)cc4nc3O2)[C@@H]1C(=O)N[C@]1(C(=O)NS(=O)(=O)C2(C)CC2)C[C@H]1C(F)F (stereo partly drawn) [Example 36, (1aR,5S,8S,9S,10R,21aR)-5-tert-butyl-N-[(1R,2R)-2-(difluoromethyl)-1-{[(1-methylcyclopropyl)sulfonyl]carbamoyl}cyclopropyl]-9-ethyl-14-methoxy-3,6-dioxo-1a,3,4,5,6,9,10,17b,18,18a, 19,20,21,21a-tetradecahydro-1H,8H-7,10-methanodicyclopropa[13,14:18,19][1,10,3,6]dioxadiazacyclononadecino[11,12-b]quinoxaline-8-carboxamide] | 9.4 nM | 1.7 nM | 585 nM | 14 nM | 16 nM | 53 nM | 128 nM | 333 nM | 23 nM | 9.1 nM | 271 nM |  |
